Results reported in US20230131334A1, “COMPANION DIAGNOSTIC BIOMARKERS OF EGFR INHIBITOR” (SYNTEKABIO, INC., priority 2020, published 2023).

Tested on: A549 cell line
Assay: WST-1 assay of drug responsiveness to pelitinib in A549 with LEPRE1 overexpression or inhibited expression
Assay type: cell-based
Details: Homo sapiens
Procedure: The expression level of LEPRE1 was identified by Western blot, and a test (WST-1 assay) of drug responsiveness to pelitinib was carried out. […] It was confirmed that LEPRE1 overexpression had the effect of increasing drug sensitivity to pelitinib. […] It was confirmed that the inhibited LEPRE1 expression had the effect of reducing drug sensitivity to pelitinib.
The loss-of-function effect whereby drug sensitivity to pelitinib decreases was confirmed when LEPRE1 expression was inhibited.

IC50 (A549, A549 overexpressing LEPRE1/pcDNA3.1, then treated with pelitinib): 1030 ± 40.6 nM | IC50 (A549, A549 overexpressing pcDNA3.1 (empty vector), then treated with pelitinib): 1670 ± 520 nM | IC50 (A549, A549 transfected with LEPRE1 siRNA (si2293), then treated with pelitinib): 4010 ± 1010 nM | IC50 (A549, A549 transfected with negative control, then treated with pelitinib): 1730 ± 187 nM
SMILES: CCOc1cc2ncc(C#N)c(Nc3ccc(F)c(Cl)c3)c2cc1NC(=O)/C=C/CN(C)C [pelitinib, Pelitinib]
